Like-named read-outs stand apart in the source and are kept apart here.
Key:
Assay type in all cases: cell-based
[1] = antibacterial activity (general statement, no method given); conditions: prepared and tested by the applicant; no method or organisms given
Bacillus subtilis A = experiment: MIC, DST agar + 10% horse blood; conditions: read-out: MIC Agar
From the text: (§1) The ninimum inhibitory concentrations (MIC) cf this compound required to inhibit the growth of various bacteria are tabulated balow: […]

Citrobacter freundii E8 = experiment: MIC, DST agar + 10% horse blood
From the text: as §1

E. coli ESS = experiment: MIC, DST agar + 10% horse blood; conditions: Escherichia coli, inoculum 0.001 ml of an undilute overnight broth culture
From the text: as §1

Escherichia coli 0111 [2] = experiment: MIC, DST agar + 10% horse blood; conditions: Escherichia coli 0111, inoculum 0.001 ml of an undilute overnight broth culture
From the text: as §1

Escherichia coli JT 39 [3] = experiment: MIC, DST agar + 10% horse blood
From the text: as §1

Klebsiella aerogenes A [4] = experiment: MIC, DST agar + 10% horse blood; conditions: read-out: MIC Agar
From the text: as §1

Proteus mirabilis C977 [5] = experiment: MIC, DST agar + 10% horse blood
From the text: as §1

Proteus morganii I580 = experiment: MIC, DST agar + 10% horse blood; conditions: Morganella morganii
From the text: as §1

Proteus rettgeri WM16 = experiment: MIC, DST agar + 10% horse blood; conditions: Providencia rettgeri
From the text: as §1

Proteus vulgaris W091 = experiment: MIC, DST agar + 10% horse blood
From the text: as §1

Pseudomonas aeruginosa A [6] = experiment: MIC, DST agar + 10% horse blood; conditions: read-out: MIC Agar
From the text: as §1

[7] = tested on: Salmonella typhimurium CT10; experiment: MIC, DST agar + 10% horse blood; conditions: Salmonella enterica, read-out: MIC Agar
From the text: as §1

Serratia marcescens US20 = experiment: MIC, DST agar + 10% horse blood
From the text: as §1

[8] = tested on: Staphylococcus aureus 1517; experiment: MIC, DST agar + 10% horse blood
From the text: as §1

[9] = tested on: Staphylococcus aureus Oxford; experiment: MIC, DST agar + 10% horse blood; conditions: read-out: MIC Agar
From the text: as §1

[10] = tested on: Staphylococcus aureus Russell; experiment: MIC, DST agar + 10% horse blood; conditions: read-out: MIC Agar
From the text: as §1

Streptococcus faecalis I = experiment: MIC, DST agar + 10% horse blood; conditions: Enterococcus faecalis, read-out: MIC Agar
From the text: as §1

[11] = tested on: Streptococcus pneumoniae CN33; experiment: MIC, DST agar + 10% horse blood
From the text: as §1

[12] = tested on: Streptococcus pyogenes CN10; experiment: MIC, DST agar + 10% horse blood
From the text: as §1

Escherichia coli 0111 [13] = experiment: MIC, microtitre using Nutrient broth; conditions: Microtitre using Nutrient broth, inoculum 0.001 ml of an undilute overnight broth culture
From the text: as §1

Escherichia coli JT 39 [14] = experiment: MIC, microtitre using Nutrient broth
From the text: as §1

Klebsiella aerogenes A [15] = experiment: MIC, microtitre using Nutrient broth; conditions: read-out: MIC Broth
From the text: as §1

Proteus mirabilis C977 [16] = experiment: MIC, microtitre using Nutrient broth
From the text: as §1

Pseudomonas aeruginosa A [17] = experiment: MIC, microtitre using Nutrient broth; conditions: read-out: MIC Broth
From the text: as §1

[18] = tested on: Staphylococcus aureus Oxford; experiment: MIC, microtitre using Nutrient broth; conditions: read-out: MIC Broth
From the text: as §1

[19] = tested on: Staphylococcus aureus Russell; experiment: MIC, microtitre using Nutrient broth; conditions: read-out: MIC Broth
From the text: as §1

Enterobacter cloacae N1 = experiment: MIC, DST agar + 10% horse blood; conditions: Enterobacter cloacae, N1, read-out: MIC Agar
From the text: as §1

Shigella sonnei MB 11967 = experiment: MIC, DST agar + 10% horse blood; conditions: MB11967, inoculum 0.001 ml of an undilute overnight broth culture
From the text: as §1

[20] = Bacillus subtilis A, DST agar + 10% horse blood, inoculum 0.001 ml of an undilute overnight broth culture
[21] = Staphylococcus aureus Oxford, DST agar + 10% horse blood, inoculum 0.001 ml of an undilute overnight broth culture
[22] = Staphylococcus aureus Russell, DST agar + 10% horse blood, inoculum 0.001 ml of an undilute overnight broth culture
[23] = Streptococcus pyogenes CN10, DST agar + 10% horse blood, inoculum 0.001 ml of an undilute overnight broth culture, read-out: MIC Agar
[24] = Staphylococcus aureus Oxford, Microtitre using Nutrient broth, inoculum 0.001 ml of an undilute overnight broth culture
[25] = Staphylococcus aureus Russell, Microtitre using Nutrient broth, inoculum 0.001 ml of an undilute overnight broth culture
[26] = Citrobacter freundii, E8, read-out: MIC Agar
[27] = Escherichia coli, JT39, read-out: MIC Agar
[28] = Proteus mirabilis, C977, read-out: MIC Agar
[29] = Proteus vulgaris, W091, read-out: MIC Agar
[30] = Serratia marcescens, US20, read-out: MIC Agar
[31] = Staphylococcus aureus, 1517, read-out: MIC Agar
[32] = Streptococcus pneumoniae, CN33, read-out: MIC Agar
[33] = Streptococcus pyogenes, CN10, read-out: MIC Agar
[34] = Escherichia coli, JT39, read-out: MIC Broth
[35] = Proteus mirabilis, C977, read-out: MIC Broth

SMILES: O=C(O)C1=CSC2CC(=O)N12 (stereo not drawn)
- antibacterial activity [1]: somewhat disappointing degree of antibacterial activity

SMILES: CC(=O)NCCOCC1=C(C(=O)O)N2C(=O)CC2S1 (stereo not drawn) [compound 23, Sodium 2-(2-acetamidoethoxy)methylponom-3-carooxylate]
- MIC (Bacillus subtilis A; [20]): 2.5 µg/mL
- MIC (Citrobacter freundii E8; Citrobacter freundii E8, DST agar + 10% horse blood, inoculum 0.001 ml of an undilute overnight broth culture, read-out: MIC Agar): 25 µg/mL
- MIC (E. coli ESS): 10 µg/mL
- MIC (Escherichia coli 0111 [2]): 25 µg/mL
- MIC (Escherichia coli JT 39 [3]; JT39, Escherichia coli JT 39, DST agar + 10% horse blood, inoculum 0.001 ml of an undilute overnight broth culture, read-out: MIC Agar): > 100 µg/mL
- MIC (Klebsiella aerogenes A [4]; Klebsiella aerogenes A, DST agar + 10% horse blood, inoculum 0.001 ml of an undilute overnight broth culture): 100 µg/mL
- MIC (Proteus mirabilis C977 [5]; Proteus mirabilis C977, DST agar + 10% horse blood, inoculum 0.001 ml of an undilute overnight broth culture, read-out: MIC Agar): 25 µg/mL
- MIC (Proteus morganii I580; Proteus morganii I580, DST agar + 10% horse blood, inoculum 0.001 ml of an undilute overnight broth culture, read-out: MIC Agar): > 100 µg/mL
- MIC (Proteus rettgeri WM16; Proteus rettgeri WM16, DST agar + 10% horse blood, inoculum 0.001 ml of an undilute overnight broth culture, read-out: MIC Agar): > 100 µg/mL
- MIC (Proteus vulgaris W091; Proteus vulgaris W091, DST agar + 10% horse blood, inoculum 0.001 ml of an undilute overnight broth culture, read-out: MIC Agar): > 100 µg/mL
- MIC (Pseudomonas aeruginosa A [6]; Pseudomonas aeruginosa A, DST agar + 10% horse blood, inoculum 0.001 ml of an undilute overnight broth culture): > 100 µg/mL
- MIC ([7]; Salmonella typhimurium CT10, DST agar + 10% horse blood, inoculum 0.001 ml of an undilute overnight broth culture): 25 µg/mL
- MIC (Serratia marcescens US20; Serratia marcescens US20, DST agar + 10% horse blood, inoculum 0.001 ml of an undilute overnight broth culture, read-out: MIC Agar): 100 µg/mL
- MIC ([8]; Staphylococcus aureus 1517, DST agar + 10% horse blood, inoculum 0.001 ml of an undilute overnight broth culture, read-out: MIC Agar): 50 µg/mL
- MIC [9, 21]: 2.5 µg/mL
- MIC [10, 22]: 25 µg/mL
- MIC (Streptococcus faecalis I; Streptococcus faecalis I, DST agar + 10% horse blood, inoculum 0.001 ml of an undilute overnight broth culture): > 100 µg/mL
- MIC ([11]; Streptococcus pneumoniae CN33, DST agar + 10% horse blood, inoculum 0.001 ml of an undilute overnight broth culture, read-out: MIC Agar): 0.5 µg/mL
- MIC [12, 23]: 1 µg/mL
- MIC (Escherichia coli 0111 [13]): 31 µg/mL
- MIC (Escherichia coli JT 39 [14]; JT39, Escherichia coli JT 39, Microtitre using Nutrient broth, inoculum 0.001 ml of an undilute overnight broth culture, read-out: MIC Broth): 250 µg/mL
- MIC (Klebsiella aerogenes A [15]; Klebsiella aerogenes A, Microtitre using Nutrient broth, inoculum 0.001 ml of an undilute overnight broth culture): 62 µg/mL
- MIC (Proteus mirabilis C977 [16]; Proteus mirabilis C977, Microtitre using Nutrient broth, inoculum 0.001 ml of an undilute overnight broth culture, read-out: MIC Broth): 31 µg/mL
- MIC (Pseudomonas aeruginosa A [17]; Pseudomonas aeruginosa A, Microtitre using Nutrient broth, inoculum 0.001 ml of an undilute overnight broth culture): > 500 µg/mL
- MIC [18, 24]: 4 µg/mL
- MIC [19, 25]: 16 µg/mL

SMILES: COCOCC1=C(C(=O)[O-])N2C(=O)C[C@H]2S1.[Na+] [compound 25, Sodium 2-methoxymethoxymethylpenem-3-carboxylate]
- MIC (Bacillus subtilis A; Bacillus subtilis): 1.2 µg/mL
- MIC (Citrobacter freundii E8; [26]): 12.5 µg/mL
- MIC (E. coli ESS): 2.5 µg/mL
- MIC (Enterobacter cloacae N1): > 50 µg/mL
- MIC (Escherichia coli 0111 [2]): 5 µg/mL
- MIC (Escherichia coli JT 39 [3]; [27]): > 50 µg/mL
- MIC (Klebsiella aerogenes A [4]; Klebsiella aerogenes): 25 µg/mL
- MIC (Proteus mirabilis C977 [5]; [28]): 12.5 µg/mL
- MIC (Proteus morganii I580; I580, read-out: MIC Agar): > 50 µg/mL
- MIC (Proteus rettgeri WM16; WM16, read-out: MIC Agar): 25 µg/mL
- MIC (Proteus vulgaris W091; [29]): > 50 µg/mL
- MIC (Pseudomonas aeruginosa A [6]; Pseudomonas aeruginosa): > 50 µg/mL
- MIC ([7]; TYPHIMURIUM): 5 µg/mL
- MIC (Serratia marcescens US20; [30]): 25 µg/mL
- MIC (Shigella sonnei MB 11967): 5 µg/mL
- MIC [8, 31]: > 50 µg/mL
- MIC ([9]; Staphylococcus aureus): 2.5 µg/mL
- MIC ([10]; Staphylococcus aureus): 5 µg/mL
- MIC (Streptococcus faecalis I): 50 µg/mL
- MIC [11, 32]: 0.2 µg/mL
- MIC [12, 33]: 0.5 µg/mL
- MIC (Escherichia coli 0111 [13]): 16 µg/mL
- MIC (Escherichia coli JT 39 [14]; [34]): 125 µg/mL
- MIC (Klebsiella aerogenes A [15]; Klebsiella aerogenes): 16 µg/mL
- MIC (Proteus mirabilis C977 [16]; [35]): 16 µg/mL
- MIC (Pseudomonas aeruginosa A [17]; Pseudomonas aeruginosa): 500 µg/mL
- MIC ([18]; Staphylococcus aureus): 2 µg/mL
- MIC ([19]; Staphylococcus aureus): 8 µg/mL

SMILES: CC(=O)NCOCC1=C(C(=O)[O-])N2C(=O)C[C@H]2S1.[Na+] [compound 29, Sodium 2-acetamidomethoxymethylpenem-3-carboxylate]
- MIC (Bacillus subtilis A; Bacillus subtilis): 1.2 µg/mL
- MIC (Citrobacter freundii E8; [26]): 5 µg/mL
- MIC (E. coli ESS): 2.5 µg/mL
- MIC (Enterobacter cloacae N1): > 50 µg/mL
- MIC (Escherichia coli 0111 [2]): 5 µg/mL
- MIC (Escherichia coli JT 39 [3]; [27]): > 50 µg/mL
- MIC (Klebsiella aerogenes A [4]; Klebsiella aerogenes): 50 µg/mL
- MIC (Proteus mirabilis C977 [5]; [28]): 12.5 µg/mL
- MIC (Proteus morganii I580; I580, read-out: MIC Agar): > 50 µg/mL
- MIC (Proteus rettgeri WM16; WM16, read-out: MIC Agar): 50 µg/mL
- MIC (Proteus vulgaris W091; [29]): > 50 µg/mL
- MIC (Pseudomonas aeruginosa A [6]; Pseudomonas aeruginosa): > 50 µg/mL
- MIC ([7]; TYPHIMURIUM): 5 µg/mL
- MIC (Serratia marcescens US20; [30]): 25 µg/mL
- MIC (Shigella sonnei MB 11967): 5 µg/mL
- MIC [8, 31]: 50 µg/mL
- MIC ([9]; Staphylococcus aureus): 2.5 µg/mL
- MIC ([10]; Staphylococcus aureus): 12.5 µg/mL
- MIC (Streptococcus faecalis I): 50 µg/mL
- MIC [11, 32]: 0.2 µg/mL
- MIC [12, 33]: 0.5 µg/mL
- MIC (Escherichia coli 0111 [13]): 16 µg/mL
- MIC (Escherichia coli JT 39 [14]; [34]): 125 µg/mL
- MIC (Klebsiella aerogenes A [15]; Klebsiella aerogenes): 62 µg/mL
- MIC (Proteus mirabilis C977 [16]; [35]): 31 µg/mL
- MIC (Pseudomonas aeruginosa A [17]; Pseudomonas aeruginosa): > 500 µg/mL
- MIC ([18]; Staphylococcus aureus): 8 µg/mL
- MIC ([19]; Staphylococcus aureus): 16 µg/mL

SMILES: CCOC(C)OCC1=C(C(=O)[O-])N2C(=O)C[C@H]2S1.[Na+] (stereo partly drawn) [compound 34, Sodium 2-(1-ethoxyethoxy)methylpenem-3-carboxylate]
- MIC ([9]; Staphylococcus aureus): 2.5 µg/mL
- MIC ([10]; Staphylococcus aureus): 10 µg/mL
- MIC [11, 32]: 1 µg/mL
- MIC [12, 33]: 1 µg/mL

SMILES: CNC(=O)OCC1=C(C(=O)O)N2C(=O)CC2S1 (stereo not drawn) [compound 36, Sodium 2-N-methylcarbamoyloxymethylpenem-3-carboxylate]
- MIC (Bacillus subtilis A; [20]): 2.5 µg/mL
- MIC [9, 21]: 12.5 µg/mL
- MIC [10, 22]: 12.5 µg/mL
- MIC [12, 23]: 25 µg/mL
- MIC [18, 24]: 8 µg/mL
- MIC [19, 25]: 16 µg/mL

From patent EP0013067A1, “Bicyclic beta-lactam antibacterial agents, their use in pharmaceutical compositions, processes for their preparation and intermediates for use in such processes” (BEECHAM GROUP PLC, priority 1978, dated 1980)
